# Entries after “also recorded” stand apart in the source; their conditions may differ.
# Experiments:
# [1] = tested on: intracranial luciferase-expressing FGFR3-TACC3-driven glioma xenografts; test: Orthotopic (intracranial) FGFR3-TACC3-driven glioma xenografts, drug treatment, survival; assay type: in vivo, mouse; settings: 50 mg/kg, oral, 20 days
# From the text: Mice were monitored daily and sacrificed when neurological symptoms appeared.
# [2] = tested on: nonclinical models with FGFR aberrations; settings: squamous NSCLC, gastric, breast, HCC, endometrial, bladder; cited from earlier work
# [3] = tested on: mouse astrocytes expressing FGFR3-TACC3-KD or the empty vector; settings: cells expressing KD mutant fusion or empty vector
# Protocol: (§1) Cell culture and cell growth assay. GIC-1123 gliomaspheres were cultured in neurobasal medium (Invitrogen) supplemented with B27, N2 (Invitrogen), EGF and FGF2 (20 ng/ml, PeproTech). Mouse astrocytes Ink4A-Arf−/− were cultured in DMEM supplemented with 10% Fetal Bovine Serum. Cells were seeded at 1,000 cells/well in a 96-well plate and treated with JNJ-42756493. After 72 hours cell viability was assessed using the 3-(4,5-dimethythiazol-2-yl)-2,5-diphenyl tetrazolium bromide (MTT) assay. Data are mean±SEM of six replicates. Experiments were performed three times.
# [4] = tested on: mouse astrocytes expressing FGFR3-TACC3; settings: mouse astrocytes expressing FGFR3-TACC3, 72 hours, MTT
# Protocol: as §1
# [5] = tested on: human glioma stem cells GIC-1123; settings: GIC-1123, 72 hours, MTT
# Protocol: as §1
# [6] = tested on: GIC-1123 tumor xenografts; test: Subcutaneous GIC-1123 xenografts treated with JNJ-42756493; settings: 12 mg/kg, oral
# Protocol: After tumor establishment (arrow) mice were treated with vehicle or JNJ-42756493 (12 mg/kg) for 14 days. Values are mean tumor volumes±SD, (n=9 mice per group). P-value of the slope calculated from the treatment starting point (arrow) is 0.04.
# Subcutaneous xenografts and drug treatment. GIC-1123 cells (5×10^5) were injected subcutaneously in the flank of athymic nude (Nu/Nu) mice (Charles River Laboratories). Mice carrying ˜200 mm 3 subcutaneous tumors were randomized to receive 12 mg/kg JNJ-42756493 or DMSO in 1% Tween 80 by oral gavage. Tumor diameters were measured with caliper and tumor volumes estimated using the formula: 0.5×length×width 2. Data are mean±SD of nine mice in each group. Mice were sacrificed when tumors in the control group reached the maximal size allowed by the IACUC Committee at Columbia University.
# [7] = tested on: all members of the FGFR family; settings: cited from earlier work
# activated FGFR = settings: cited from earlier work
# [8] = tested on: recurrent GBM harboring FGFR3-TACC3 fusions; test: Phase I trial of JNJ-42756493 in patients with recurrent GBM harboring FGFR3-TACC3 (MRI, RANO, volumetry)
# From the text: (A) Post-gadolinium T1 weighted images show the target lesion on the right parietal lobe. […] (B) Analysis of sum of product diameters (SPD) before and during the anti-FGFR treatment (RANO criteria). (C) Analysis of tumor volume (cm3) before and during the anti-FGFR treatment. […] (D) Perfusion images at baseline and after 20 days of anti-FGFR treatment. rCBV (relative cerebral blood volume). Post-gadolinium T1 weighted images with color overlay of rCBV are shown. […] (F) Analysis of sum of product diameters (SPD) before and during the anti-FGFR treatment.
# MRI imaging and evaluation of clinical response to JNJ-42756493. Baseline and follow-up imaging assessments were performed on 1.5 Tesla MR imaging systems, including at least axial T1 weighted images before gadolinium injection, Axial or 3D FLAIR (Fluid-Attenuated Inversion-Recovery), dynamic susceptibility contrast MR perfusion (0.1 mmol/kg of gadobutrol), axial and 3D T1 weighted images after gadolinium injection. Tumor response was assessed according to the RANO criteria (33). Contrast-enhancing lesion volume was assessed with the help of a semi-automated volumetry tool (SegmentiX), based on shape-detection and thresholding, with control and manual correction of edges when necessary. Since exclusion of cystic or necrotic portions of the lesion may be affected by operator subjectivity, both were included for volumetric and axial measurements.
# DSC (dynamic susceptibility contrast) perfusion datasets were processed with vendor's software suite (Neuroperfusion, Philips), including coregistration and rCBV (relative cerebral blood volume) parametric maps generation with 3 different algorithms (Gamma-variate fitting, Arterial Input Function based deconvolution and Model Free).
# Rat1A cells = test: Karyotype analysis (chromosome counts, aneuploidy) of Rat1A cells; assay type: cell-based, rat; settings: five days
# Protocol: Distribution of chromosome counts of cells arrested in mitosis and analyzed for karyotypes using DAPI. Chromosomes were counted in 100 metaphase cells for each condition to determine the ploidy and the diversity of chromosome counts within the cell population. FGFR3-TACC3 fusion induces aneuploidy.
# The upper panel is a karyotype analysis of Rat1A cells transduced with control or FGFR3-TACC3 lentivirus and treated with vehicle (DMSO) or PD173470 (100 nM) for five days.
# (§2) Karyotype analysis. Cultured cells were colcemid (20 ng/ml) treated for 90 minutes before harvesting for karyotopic analysis as detailed in Extended Experimental procedures. At least one hundred cells in metaphase were examined for chromosome count. PMSCS was scored in cells where a majority of the sister chromosomes were no longer associated. Two-tailed unpaired t-tests with Welch's correction were performed for comparison of means analysis.
# Karyotypic Analysis. The colcemid treated cells were trypsinized, centrifuged for 7 minutes at 200×g, and the cell pellet re-suspended in warmed hypotonic solution and incubated at 37° C. for 13 minutes. The swollen cells were then centrifuged and the pellet re-suspended in 8 ml of Carnoy's fixative (3:1 methanol:glacial acetic acid). […] Slides were stained with DAPI and metaphases were analyzed under a fluorescent microscope.
# [9] = tested on: glioma xenografts of FGFR3-TACC3 transformed astrocytes; test: Subcutaneous glioma xenografts of FGFR3-TACC3 transformed astrocytes, drug treatment; assay type: in vivo, mouse; settings: 50 mg/kg, oral gavage
# Protocol: (§3) Subcutaneous xenografts and drug treatment. […] For experiments with FGFR inhibitors, mice carrying ˜200-300 mm 3 subcutaneous tumors derived from Ink4A; Arf−/− astrocytes were randomized to receive 50 mg/kg PD173074 in 0.05 M lactate buffer (pH 5) or an equal volume of lactate buffer by oral gavage. Treatment was administered for three cycles consisting of four consecutive days followed by two days of rest. […] Data are expressed as mean±SE.
# [10] = tested on: Rat1A cells and Ink4A;Arf-/- astrocytes; test: Premature sister chromatid separation (PMSCS) in metaphase spreads; assay type: cell-based; settings: cells expressing FGFR3-TACC3
# From the text: Correction of premature sister chromatid separation (PMSCS) by PD173470 in cells expressing FGFR3-TACC3. Panels show representative metaphase spreads. DNA was stained by DAPI.
# Left, panels show representative metaphase spreads. Right, quantitative analysis of metaphases with loss of sister chromatid cohesion. The number of mitosis with PMSCS in Ink4A; Arf−/− astrocytes was scored in at least 100 methaphases for each condition in three independent experiments. The number of mitosis with PMSCS was scored in triplicate samples of Rat1A cells. FIG. 13D is a graph showing nocodazole was added for the indicated durations to Rat1A-H2B-GFP cells transduced with the specified lentiviruses. The mitotic index at each time point was determined by quantitating the H2B-GFP-positive cells in mitosis at each time point. Data are presented as average and standard deviation (n=3).
# as §2
# FGFR3-TACC3 = molecular target: T1, FGFR3-TACC3 (Homo sapiens, UniProt P22607); test: Western blot of constitutive phosphorylation of FGFR3-TACC3 and FRS2 in Ink4A;Arf-/- astrocytes; assay type: cell-based, mouse; settings: 100 nM PD173074, Ink4A;Arf-/- astrocytes
# T1 construct: a protein of 1,048 amino acids resulting from the fusion of a FGFR3 amino-terminal portion of residues 1-758; expressed in transfected cells; host or cells: Ink4A;Arf-/- mouse astrocytes, lentiviral transduction (pLOC-GFP / pTomo vectors)
# Protocol: Ink4A; Arf−/− astrocytes transduced with empty lentivirus or a lentivirus expressing FGFR3-TACC3 or FGFR3-TACC3-K508M were left untreated (0) or treated with 100 nM of the FGFR inhibitor PD173074 for the indicated times. Phospho-proteins and total proteins were analyzed by Western blot using the indicated antibodies.
# [11] = tested on: Ink4A;Arf-/- astrocytes in immunodeficient mice; test: Subcutaneous tumor xenograft formation by lentivirus-transduced Ink4A;Arf-/- astrocytes; assay type: in vivo, mouse
# From the text: FIG. 3B are photomicrographs showing of immunofluoresence staining of tumors from mice injected with Ink4A; Arf−/− astrocytes expressing FGFR3-TACC3 showing positivity for glioma-specific (Nestin, Oig2 and GFAP) and proliferation markers (Ki67 and pHH3). Sub-cutaneous tumors were generated by Ink4A; Arf−/− astrocytes expressing FGFR-TACC fusions.
# as §3
# Rat1 = test: Soft agar colony assay, Rat1 cells; assay type: cell-based, rat; settings: Rat1 cells transduced with the construct
# From the text: FGFR1-TACC1 and FGFR3-TACC3 induce anchorage-independent growth in Rat1A fibroblasts. The number of soft agar colonies was scored from triplicate samples 14 days after plating. Representative microphotographs are shown.
# [12] = tested on: Rat1A cells and Ink4A;Arf-/- astrocytes; test: Quantitative analysis of chromosome segregation defects in mitoses; assay type: cell-based
# From the text: Quantitative analysis of metaphase spreads for chromosome segregation defects in Ink4A; ARF−/− astrocytes expressing vector control or FGFR3-TACC3 (upper panel). Microscope imaging analysis of chromosome segregation defects in Ink4A; Arf−/− astrocytes expressing FGFR3-TACC3 or vector control. Representative images of cells with chromosome missegregation. Arrows point to chromosome misalignments, lagging chromosomes and chromosome bridges.
# Confocal microscopy imaging. For immunofluorescence of fixed cells, images were recorded with a Z-optical spacing of 0.25 μm using a Nikon AIR MP and a 60×1.3 oil objective and analyzed using ImageJ software (National Institute of Health). For live-cell analyses, Rat1A cells infected with pLNCX-H2B retrovirus and transduced with lentiviral vector or FGFR3-TACC3 fusion were seeded in glass bottom dishes in phenol red free DMEM and followed by time-lapse microscopy using the Nikon AIR MP biostation at 37° C. and 5% CO2/95% air. Images with a Z-optical spacing of 1 μm were recorded every 4 min for 8 h. Images of unchallenged mitosis from early prophase until cytokinesis were processed using ImageJ software (National Institute of Health). The time-point of nuclear envelope breakdown (NEB) was defined as the first frame showing loss of smooth appearance of chromatin and anaphase was the first frame when chromosome movement towards the poles became apparent. […]
# [13] = tested on: Rat1A cells expressing FGFR3-TACC3 fusion; test: Growth of Rat1A cells expressing FGFR3-TACC3 after FGFR3 shRNA lentivirus (trypan blue exclusion); assay type: cell-based, rat; settings: lentiviral shRNA
# Protocol: At the left, parallel cultures of GSC-1123 cells were transduced in triplicate. Rat1A cells expressing FGFR3-TACC3 fusion were transduced with lentivirus expressing a non-targeting shRNA (Ctr) or shRNA sequences targeting FGFR3 (sh2, sh3, sh4). Five days after infection cells were plated at density of 2λ10^4 cells/well in triplicate and the number of trypan blue excluding cells was scored at the indicated times. […] Values are the means±standard deviation (n=3). At the right sided figure, GSC-1123 cells were transduced with lentivirus expressing a non-targeting shRNA (sh-Ctr) or lentivirus expressing sh-3 and sh-4 sequences targeting FGFR3. Western Blot analysis was performed on parallel cultures using the FGFR3 antibody to the detect FGFT3-TACC3 fusion protein. β-actin is shown as a control for loading.
# Cloning and Lentiviral production. Lentiviral expression vectors, pLOC-GFP (Open Biosystems) and pTomo-shp53, were used to clone FGFR3, TACC3, FGFR3-TACC3, FGFR3-TACC3-K508M, and FGFR1-TACC1. pTomo-shp53 was a gift of Inder Verma and Dinorah Friedman-Morvinski (Salk Institute, San Diego). The FGFR3-TACC3-K508M mutant was generated using the Phusion Site Direct Mutagenesis kit (NEB, USA). MISSION shRNAs clones (pLK0.1 lentiviral expression vectors) against FGFR3 were purchased from Sigma. The hairpin sequences targeting the FGFR3 gene are—
compound,measurement,setting,value
COc1cc(CCc2cc(NC(=O)c3ccc(N4C[C@@H](C)N[C@@H](C)C4)cc3)n[nH]2)cc(OC)c1 [AZD4547],survival of mice with intracranial FGFR3-TACC3 glioma,[1],markedly prolonged survival
COc1cc(OC)cc(N(CCNC(C)C)c2ccc3ncc(-c4cnn(C)c4)nc3c2)c1 [JNJ-42756493],antitumor activities in nonclinical models with FGFR aberrations,[2],potent antitumor activities
same,sensitivity to FGFR inhibition,[3],but not cells expressing the KD mutant fusion or the empty vector
same,IC50,[4],3.03 nM
same,IC50,[5],1.55 nM
same,growth of GIC-1123 tumor xenografts,[6],potent growth inhibition
same,tumor regression of GIC-1123 xenografts,[6]; after two weeks,statistically significant tumor regression
same,IC50 values for all members of the FGFR family,[7],low nanomolar range
same,concentration inhibiting tyrosine phosphorylation of activated FGFR,activated FGFR,nanomolar concentrations
same,change of the enhancing parenchyma of the tumor mass,[8]; Patient 1,−44%
same,duration of stabilization,[8]; Patient 1,115 days
same,toxicity observed during treatment,[8]; Patient 1,"grade I hyperphosphatemia, asthenia, dysgueusia, dry mouth, keratitis, and grade II nail changes"
same,"tumor response on MRI (RANO sum of product diameters, volumetry)","[8]; Patient 1, 12 mg/day, 7 days on/7 days off",stabilization of the tumor; also recorded: stable disease; also recorded: disease stabilization
same,extent of tumor vascularity (rCBV),"[8]; Patient 1, MR perfusion",marked reduction
same,clinical status,"[8]; Patient 1, after 3 weeks",marked clinical improvement
same,time to best response,[8]; Patient 2,104 days
same,time to disease progression after start of anti-FGFR,[8]; Patient 2,134 days
same,toxicity observed during treatment,[8]; Patient 2,"Grade I hyperphosphatemia, nail changes, and mucositis"
same,tumor response category,[8]; Patient 2,minor response
same,clinical status,"[8]; Patient 2, after 4 weeks",clinical improvement
same,reduction of tumor size according to the RANO criteria,"[8]; Patient 2, best response",22%
same,tumor reduction according to volumetry,"[8]; Patient 2, best response",28%
CCN(CC)CCCCNc1ncc2cc(-c3cc(OC)cc(OC)c3)c(NC(=O)NC(C)(C)C)nc2n1 [PD173074],distribution of chromosome counts,"Rat1A cells; Rat1A expressing FGFR3-TACC3, 100 nM",restored the narrow distribution of chromosome counts
same,rescue of the aneuploidy caused by FGFR3-TACC3,"Rat1A cells; Rat1A, 100 nM",over 80%
same,tumor growth of FGFR3-TACC3 glioma subcutaneous xenografts,[9],potent growth inhibition
same,cohesion defect (premature sister chromatid separation),[10],largely corrected
same,cohesion defect (premature sister chromatid separation),[10]; listed as PD173470,Correction
same,constitutive phosphorylation of the TK domain of FGFR3-TACC3 and of FRS2,FGFR3-TACC3,abolished
FGFR1-TACC1: fusion protein in which the TK domain of FGFR1 is fused upstream of the TACC domain of TACC1 (SEQ ID NO: 150),mice with tumors after subcutaneous injection of astrocytes expressing the fusion protein,"[11]; Ink4A;Arf-/- astrocytes, immunodeficient mice",100%
same,Subcutaneous tumor xenografts (tumors formed/injections),[11]; Ink4Arf-/- astrocytes expressing the construct,8/8
same,soft agar colonies,Rat1,225.3 ± 10.0
same,increase of chromosomal segregation errors versus control cells,[12],three to five fold increase
"sh-3: MISSION shRNA hairpin targeting the FGFR3 gene, SEQ ID NO: 183 (guide GTTCCACTGCAAGGTGTACAG; the letters are possibly those of the target site)",growth of cells ectopically expressing FGFR3-TACC3 after FGFR3 silencing,[13],reverted the growth rate
"sh-4: MISSION shRNA hairpin targeting the FGFR3 gene, SEQ ID NO: 184 (guide GCACAACCTCGACTACTACAA; the letters are possibly those of the target site)",growth of cells ectopically expressing FGFR3-TACC3 after FGFR3 silencing,[13],reverted the growth rate
